Consider one compound from ChEMBL document CHEMBL2073898, “Overexpression of the BCRP/MXR/ABCP gene in a topotecan-selected ovarian tumor cell line” (Cancer Res, 1999).

The target in data set [1] is T1, Broad substrate specificity ATP-binding cassette transporter ABCG2 (Homo sapiens, UniProt Q9UNQ0).
T1 sequence (Q9UNQ0 whole entry): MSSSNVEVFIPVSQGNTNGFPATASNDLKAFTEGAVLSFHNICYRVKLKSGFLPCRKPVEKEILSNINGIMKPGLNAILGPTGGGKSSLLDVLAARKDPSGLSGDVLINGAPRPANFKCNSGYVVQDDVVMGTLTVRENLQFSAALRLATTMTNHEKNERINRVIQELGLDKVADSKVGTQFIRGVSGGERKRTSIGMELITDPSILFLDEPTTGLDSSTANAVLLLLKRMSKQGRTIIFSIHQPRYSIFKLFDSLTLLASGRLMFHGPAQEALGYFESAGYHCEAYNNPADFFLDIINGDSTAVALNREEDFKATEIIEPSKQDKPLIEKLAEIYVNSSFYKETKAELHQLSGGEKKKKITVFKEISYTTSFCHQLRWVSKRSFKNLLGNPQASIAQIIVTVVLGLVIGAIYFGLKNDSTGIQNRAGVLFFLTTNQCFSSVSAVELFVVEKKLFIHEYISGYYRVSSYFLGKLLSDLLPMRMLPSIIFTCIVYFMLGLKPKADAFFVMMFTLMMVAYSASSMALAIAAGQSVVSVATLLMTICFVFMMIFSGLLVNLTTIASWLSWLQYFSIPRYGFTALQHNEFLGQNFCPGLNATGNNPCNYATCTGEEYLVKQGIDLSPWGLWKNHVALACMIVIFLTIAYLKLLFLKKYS
Description: TP_TRANSPORTER: intracellular concentration of the drug is lower compared with IGROV1 in MX3 cells. Type of data set: functional, cell-based.

The target in data set [2] is T1, Broad substrate specificity ATP-binding cassette transporter ABCG2. Description: TP_TRANSPORTER: intracellular concentration of the drug is lower compared with IGROV1 in T8 cells. In kind it is functional, cell-based.

Consider `CC[C@@]1(O)C(=O)OCc2c1cc1n(c2=O)Cc2cc3c(CN(C)C)c(O)ccc3nc2-1` [TOPOTECAN], for which the Activity result in data set [1] and in data set [2] was “substrate [+]” each time.
